From patent US20220273676A1, “CHOLECALCIFEROL FOR USE IN THE TREATMENT OF CELIAC DISEASE” (ABIOGEN PHARMA S.P.A., priority 2019, published 2022)

Legend:
NOD mice [1] = test: Histopathological lesion scoring (Marsh) of small intestine in NOD mouse model of celiac disease; type: in vivo; details: for Lesion type 0, number of animals / Lesion type 1, number of animals / Lesion type 2, number of animals / Lesion type 3, number of animals: celiac NOD mice
Text: (§1) For the study, the NOD (Non Obese Diabetic) mouse was chosen as an experimental model which, when fed with a standard diet containing gluten, is able to spontaneously develop enteropathy and autoimmune disorders, with alterations of the small intestine similar to those observed. in human celiac disease.
(§2) 103 female NOD mice aged four weeks were then placed in two different enclosure rooms (one for mice intended to follow a standard diet and one for mice intended for a gluten-free diet) and allowed to acclimate for a period of at least seven days.
(§3) They were then randomly assigned to seven different experimental groups. The development of enteropathy was achieved by feeding NOD mice with a standard diet containing gluten and administering gliadin orally with a dosage of 10 μg/kg for ten consecutive days.
(§4) The seven experimental groups are represented in the following table 1.
(§5) At the end of the treatment period the mice were sacrificed. A macroscopic examination was performed and the small intestine was removed from each mouse to be subjected to microscopic examinations.
(§6) In particular, histopathological and histomorphometric examinations were carried out on sections of intestine with a thickness of 5-7 μm placed in paraffin and stained with hematoxylin-eosin.
The scoring system described in Marsh et al, Gut 1990 January; 31 (1): 111-4 was used, to allow comparison between groups with different degrees of inflammatory infiltration and type of lesions observed under the microscope, which provides for the following classification: • lesion type 0: normal intestinal mucosa; • lesion type 1 (infiltrative): normal morphology and architecture of the villi, higher number of intraepithelial lymphocytes; • lesion type 2 (hyperplastic): normal morphology and architecture of the villi, higher number of intraepithelial lymphocytes, hyperplasia of the glandular elements; • lesion type 3 ([…]): different degrees of atrophy of the villi with hypertrophy of the glandular crypts, superficial enterocytes with reduced height, higher number of intraepithelial lymphocytes.
(§7) Fifteen histomorphometric measurements of the height of the villi were then carried out from each of the five small intestine sections evaluated for each mouse. The results of the microscopic histopathological evaluation are summarized in the following table 2, which contains the four degrees of lesion previously described and the number of animals of each group presenting the various types of lesions.

NOD mice [2] = test: Histomorphometric measurement of villus length in small intestine of NOD mice; type: in vivo, mouse; details: for Villus length: celiac NOD mice
Text: as §1, §2, §3, §4, §5, §6, §7

[3] = tested on: receptor for vitamin D (VDR); test: Immunohistochemistry of VDR in mucosa of small intestine of NOD mice; type: in vivo, mouse; details: 130 μg/kg vs pathology control, IHC
Description: (§8) Small intestine samples were taken from mice belonging to experimental groups 2 (pathology control) and 7 (cholecalciferol 130 μg/kg) of the experiment described in Example 1 and were processed to evaluate by immunohistochemistry the expression of three proteins: the receptor for vitamin D (VDR), the T-cell marker (CD3) which indicates lymphocyte infiltration and the protein of Zonula Occludens 1 or Zonulin-1 (Z0-1) which is usually released in serum and tissue following destruction of the intestinal epithelial barrier, in particular of the intercellular tight junctions (TJs).
(§9) The samples were washed in xylene, hydrated and washed in water with solutions of ethanol and water to scale. The recovery of the antigen was carried out in sodium citrate buffer using the standard “pressure cooker” protocol. Once the antigen recovery was completed, the samples were placed at room temperature for 10 ‘and washed twice for 2’ in PBS tween (phosphate buffer saline with tween). Non-specific sites were blocked with 200 μL of T20 starting block.
(§10) They were then dispensed on each slide, either 200 μL of solution comprising the primary antibody of interest, or 200 μL of the respective negative control. The slides were then left to incubate overnight in a humid chamber with PBS at 4° C.
(§11) After incubation, repeated washes were carried out in wash buffer at room temperature, after which the endogenous peroxidase was blocked with a 0.3% hydrogen peroxide buffer.
(§12) Subsequently, repeated washes were carried out again in wash buffer at room temperature and the secondary antibody was added, which was left to incubate for 1 hour at room temperature.
(§13) Repeated washings were then carried out again in wash buffer at room temperature. Subsequently, the DAB solution (3′,3′-Diaminobenzidine) was added, which was then blocked by washing at room temperature.
(§14) Finally, counterstaining with Meyer's hematoxylin was carried out and the reaction was stopped by washing in water.
(§15) The slides were then mounted with two drops of aqueous mounting medium and allowed to dry.
(§16) Antibody labelling in villi, crypts and goblet cells was evaluated.

T-cell marker (CD3) = test: Immunohistochemistry of CD3 in mucosa of small intestine of NOD mice; type: in vivo, mouse; details: IHC
Description: as §8, §9, §10, §11, §12, §13, §14, §15, §16

[4] = tested on: Zonula Occludens 1 or Zonulin-1 (Z0-1); test: Immunohistochemistry of ZO-1 in mucosa of small intestine of NOD mice; type: in vivo, mouse; details: 130 μg/kg vs vehicle group, IHC
Description: as §8, §9
They were then dispensed on each slide, either 200 μL of solution comprising the primary antibody of interest, or 200 μL of the respective negative control. The slides were then left to incubate overnight in a humid chamber with PBS at 4° C. […]
as §16

NOD mice [5] = test: Atrophy of the intestinal mucosa, Corazza-Villanacci classification, NOD mice; type: in vivo, mouse
Description: as §8
The atrophy of the intestinal mucosa was evaluated according to the Corazza-Villanacci classification.

[6] = cited from earlier work
[7] = tested on: tight intercellular junctions (TJs); details: preliminary studies in vivo and in vitro, Dong et al. 2018; cited from earlier work
[8] = 5 μg/kg/day orally once a day for 12 weeks, n = 15
[9] = 10 μg/kg/day orally once a day for 12 weeks, n = 15
[10] = 20 μg/kg/day orally once a day for 12 weeks, n = 16
[11] = 50 μg/kg/day orally once a day for 12 weeks, n = 16
[12] = 130 μg/kg/day orally once a day for 12 weeks, n = 15

With `C=C1CC[C@H](O)C/C1=C/C=C1\CCC[C@]2(C)[C@@H]([C@H](C)CCCC(C)C)CC[C@@H]12` [Cholecalciferol] the “Lesion type 0, number of animals” value (NOD mice [1]; [8]) was 0, the “Lesion type 1, number of animals” value (NOD mice [1]; [8]) was 2 and the “Lesion type 2, number of animals” value (NOD mice [1]; [8]) was 13. The “Lesion type 3, number of animals” value (NOD mice [1]; [8]) was 0, the “Lesion type 0, number of animals” value (NOD mice [1]; [9]) was 0 and the “Lesion type 1, number of animals” value (NOD mice [1]; [9]) was 9. The “Lesion type 2, number of animals” value (NOD mice [1]; [9]) was 4, the “Lesion type 3, number of animals” value (NOD mice [1]; [9]) was 2 and the “Lesion type 0, number of animals” value (NOD mice [1]; [10]) was 0. For the same molecule, the “Lesion type 1, number of animals” value (NOD mice [1]; [10]) was 7, the “Lesion type 2, number of animals” value (NOD mice [1]; [10]) was 4 and the “Lesion type 3, number of animals” value (NOD mice [1]; [10]) was 5. For the same molecule, the “Lesion type 0, number of animals” value (NOD mice [1]; [11]) was 3, the “Lesion type 1, number of animals” value (NOD mice [1]; [11]) was 3 and the “Lesion type 2, number of animals” value (NOD mice [1]; [11]) was 9. The “Lesion type 3, number of animals” value (NOD mice [1]; [11]) was 1, the “Lesion type 0, number of animals” value (NOD mice [1]; [12]) was 3 and the “Lesion type 1, number of animals” value (NOD mice [1]; [12]) was 3. The “Lesion type 2, number of animals” value (NOD mice [1]; [12]) was 6, the “Lesion type 3, number of animals” value (NOD mice [1]; [12]) was 3 and the “General depiction of the lesions compared to the untreated celiac mice” value (NOD mice [1]; all tested doses (5-130 μg/kg)) was “overall improvement”. The “General depiction of the lesions compared to the untreated celiac mice” value (NOD mice [1]; highest doses, repeated administrations of 50 and 130 μg/kg) was “significantly improved”, the Villus length (NOD mice [2]; [8]) was 65.7 ×10 μm and the Villus length (NOD mice [2]; [9]) was 71.2 ×10 μm. The Villus length (NOD mice [2]; [10]) was 76.1 ×10 μm, the Villus length (NOD mice [2]; [11]) was 75.0 ×10 μm and the Villus length (NOD mice [2]; [12]) was 78.8 ×10 μm. The “Relation between increase in the length of the villi and dose administered” value (NOD mice [2]; 5-130 μg/kg) was “dose-dependent relationship”, the “Villus length compared to untreated celiac controls” value (NOD mice [2]; all treated groups) was “longer than those of the untreated celiac controls” and the “VDR marking in crypts” value [3] was “the same phenomenon was observed in the crypts”. For the same molecule, the “VDR marking in villi” value [3] was “greater expression of VDR”, the “VDR, intensity of marking of goblet cells” value [3] was “greater intensity of marking” and the “VDR, number of marked goblet cells” value [3] was “smaller number of marked cells”. For the same molecule, the CD3 expression (T-cell marker (CD3); 130 μg/kg vs pathology control) was “less expressed”, the “CD3 intensity of marking in goblet cells” value (T-cell marker (CD3); 130 μg/kg vs pathology control) was “reduction in the intensity of the marking” and the “CD3 signal in goblet cells compared to the control” value (T-cell marker (CD3); 130 μg/kg vs pathology control) was “reduction in the signal”. The “CD3 labelling of villi and crypts” value (T-cell marker (CD3); 130 μg/kg) was “unlabeled”, the “ZO-1 marking of villi and crypts” value [4] was “more marked in the group treated with the vehicle” and the “Atrophy of the villi” value (NOD mice [5]; 130 μg/kg vs pathology control, ZO-1 slides) was “less marked”. The “Atrophy in the villi compared to vehicle treated control” value (NOD mice [5]; 130 μg/kg, VDR slides) was “reduction in atrophy”, the “blood half-life (T1/2)” value ([6]; estimated) was 19 to 25 h and the functional half-life ([6]; related to slow release by adipose tissue) was “several weeks”.

For `C=C1/C(=C\C=C2/CCC[C@]3(C)[C@@H]([C@H](C)CCCC(C)(C)O)CC[C@@H]23)C[C@@H](O)C[C@@H]1O` [calcitriol], the “Effect on the intestinal mucosal barrier towards PT-G” value [7] is given as “protective action against TJs”.
